Consider 11 compounds from ChEMBL document CHEMBL5291721, “A preclinical secondary pharmacology resource illuminates target-adverse drug reaction associations of marketed drugs” (Nat Commun, 2023).

For experiment [1], the target named is T1, Muscarinic acetylcholine receptor M4 (Homo sapiens, UniProt P08173).
T1 sequence (P08173 whole entry): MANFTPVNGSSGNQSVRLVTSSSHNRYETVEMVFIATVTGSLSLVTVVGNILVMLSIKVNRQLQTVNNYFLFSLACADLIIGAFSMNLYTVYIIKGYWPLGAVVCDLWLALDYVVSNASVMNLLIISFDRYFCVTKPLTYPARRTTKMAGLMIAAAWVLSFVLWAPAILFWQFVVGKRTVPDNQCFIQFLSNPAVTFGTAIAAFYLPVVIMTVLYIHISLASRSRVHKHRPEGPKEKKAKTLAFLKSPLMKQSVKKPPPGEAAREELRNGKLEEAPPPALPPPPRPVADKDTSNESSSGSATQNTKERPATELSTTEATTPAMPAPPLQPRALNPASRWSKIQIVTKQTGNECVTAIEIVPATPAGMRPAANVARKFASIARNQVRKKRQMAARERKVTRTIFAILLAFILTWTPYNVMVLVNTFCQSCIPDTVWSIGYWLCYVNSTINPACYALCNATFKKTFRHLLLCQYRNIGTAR

The target in experiment [2] is T2, Muscarinic acetylcholine receptor M5 (Homo sapiens, UniProt P08912).
T2 sequence (P08912 whole entry): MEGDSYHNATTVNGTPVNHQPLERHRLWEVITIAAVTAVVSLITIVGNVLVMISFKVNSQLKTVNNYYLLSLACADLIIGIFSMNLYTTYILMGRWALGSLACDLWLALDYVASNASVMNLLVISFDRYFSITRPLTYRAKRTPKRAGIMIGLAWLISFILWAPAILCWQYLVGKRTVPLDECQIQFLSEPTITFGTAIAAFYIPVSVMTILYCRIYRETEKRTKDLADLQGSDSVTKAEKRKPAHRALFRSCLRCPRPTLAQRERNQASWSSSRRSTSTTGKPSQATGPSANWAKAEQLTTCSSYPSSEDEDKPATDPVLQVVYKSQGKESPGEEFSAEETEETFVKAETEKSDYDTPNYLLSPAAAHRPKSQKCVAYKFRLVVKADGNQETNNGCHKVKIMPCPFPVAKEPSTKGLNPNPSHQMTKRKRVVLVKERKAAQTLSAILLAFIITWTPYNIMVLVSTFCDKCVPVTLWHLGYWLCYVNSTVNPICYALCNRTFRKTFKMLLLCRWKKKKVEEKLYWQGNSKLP

Another experiment has as its target Cannabinoid receptor 1 (Homo sapiens, UniProt P21554). The experiment is classed as functional.
The target in experiment [3] is 5-hydroxytryptamine receptor 5A (Homo sapiens, UniProt P47898).
In experiment [4] the target is 5-hydroxytryptamine receptor 6 (Homo sapiens, UniProt P50406).
Experiment [5] has as its target 5-hydroxytryptamine receptor 7 (Homo sapiens, UniProt P34969).
The target of experiment [6] is Rod cGMP-specific 3',5'-cyclic phosphodiesterase subunit alpha (Homo sapiens, UniProt P16499). The experiment is classed as functional.
For a further experiment, the target named is T3, Substance-K receptor (Homo sapiens, UniProt P21452).
T3 sequence (P21452 whole entry): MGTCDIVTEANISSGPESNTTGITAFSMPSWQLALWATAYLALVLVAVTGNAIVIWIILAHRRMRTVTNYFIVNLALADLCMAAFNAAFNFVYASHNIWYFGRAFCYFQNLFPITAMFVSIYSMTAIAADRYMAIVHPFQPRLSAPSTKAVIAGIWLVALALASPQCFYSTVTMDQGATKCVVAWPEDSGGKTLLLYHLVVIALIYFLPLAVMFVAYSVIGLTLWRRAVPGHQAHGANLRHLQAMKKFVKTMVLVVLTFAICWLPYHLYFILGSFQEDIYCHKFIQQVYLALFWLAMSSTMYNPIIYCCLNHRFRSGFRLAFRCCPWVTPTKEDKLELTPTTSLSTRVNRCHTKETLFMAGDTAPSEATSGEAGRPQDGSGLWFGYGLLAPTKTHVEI

Experiment [7] has as its target Hydroxycarboxylic acid receptor 2 (Homo sapiens, UniProt Q8TDS4).
For experiment [8], the target named is T4, Type-2 angiotensin II receptor (Homo sapiens, UniProt P50052).
T4 sequence (P50052 whole entry): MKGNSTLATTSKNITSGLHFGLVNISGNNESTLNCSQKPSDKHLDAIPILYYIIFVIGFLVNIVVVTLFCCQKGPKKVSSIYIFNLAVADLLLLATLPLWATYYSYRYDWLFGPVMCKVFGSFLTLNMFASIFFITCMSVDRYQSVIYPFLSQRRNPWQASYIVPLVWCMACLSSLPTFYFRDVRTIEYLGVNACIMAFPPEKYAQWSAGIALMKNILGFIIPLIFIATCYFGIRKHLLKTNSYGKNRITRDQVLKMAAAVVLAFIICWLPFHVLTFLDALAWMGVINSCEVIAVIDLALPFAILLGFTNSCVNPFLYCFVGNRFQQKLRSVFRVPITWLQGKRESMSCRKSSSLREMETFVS
The format is functional.

The target of experiment [9] is Sodium channel protein type 5 subunit alpha (Homo sapiens, UniProt Q14524). The experiment is classed as functional, cell-based.
Experiment [10] concerns the target Voltage-dependent L-type calcium channel subunit alpha-1C (Homo sapiens, UniProt Q13936). The format is functional, cell-based.
The target of experiment [11] is T5, Alpha-2A adrenergic receptor (Homo sapiens, UniProt P08913).
T5 sequence (P08913 whole entry): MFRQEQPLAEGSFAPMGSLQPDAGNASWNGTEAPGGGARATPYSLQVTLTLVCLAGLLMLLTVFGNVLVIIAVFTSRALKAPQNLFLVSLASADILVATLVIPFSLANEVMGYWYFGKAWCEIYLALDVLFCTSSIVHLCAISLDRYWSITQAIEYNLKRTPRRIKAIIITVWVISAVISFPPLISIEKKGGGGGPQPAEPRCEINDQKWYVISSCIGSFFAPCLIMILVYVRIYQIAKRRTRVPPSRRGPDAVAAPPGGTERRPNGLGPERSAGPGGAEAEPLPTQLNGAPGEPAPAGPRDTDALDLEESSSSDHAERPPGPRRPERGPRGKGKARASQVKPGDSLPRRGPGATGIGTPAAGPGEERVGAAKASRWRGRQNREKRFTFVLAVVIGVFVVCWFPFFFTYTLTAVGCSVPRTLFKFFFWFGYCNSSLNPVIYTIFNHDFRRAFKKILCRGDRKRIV

Experiment [12] has as its target Beta-1 adrenergic receptor (Homo sapiens, UniProt P08588). The format is functional, cell-based.
The target of experiment [13] is T6, Histamine H1 receptor (Homo sapiens, UniProt P35367). The experiment is classed as functional, cell-based.
Experiment [14] addresses T6, Histamine H1 receptor. The experiment is classed as functional, cell-based. The source holds these as a separate data set.
Further: assay procedure not described here.

Cannabinoid receptor 1, sequence (P21554 whole entry): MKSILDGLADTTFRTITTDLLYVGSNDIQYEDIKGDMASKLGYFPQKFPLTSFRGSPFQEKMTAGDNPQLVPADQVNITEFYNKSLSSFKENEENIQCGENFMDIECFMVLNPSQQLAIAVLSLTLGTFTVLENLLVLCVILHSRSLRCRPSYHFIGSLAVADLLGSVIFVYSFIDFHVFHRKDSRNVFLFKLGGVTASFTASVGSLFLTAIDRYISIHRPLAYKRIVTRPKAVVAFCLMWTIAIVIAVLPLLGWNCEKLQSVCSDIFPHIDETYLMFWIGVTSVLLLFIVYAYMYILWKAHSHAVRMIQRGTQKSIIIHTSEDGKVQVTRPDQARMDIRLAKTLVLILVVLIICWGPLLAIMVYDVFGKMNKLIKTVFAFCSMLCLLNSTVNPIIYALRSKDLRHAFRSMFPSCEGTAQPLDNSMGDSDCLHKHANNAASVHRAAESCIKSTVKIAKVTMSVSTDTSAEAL
T6 sequence (P35367 whole entry): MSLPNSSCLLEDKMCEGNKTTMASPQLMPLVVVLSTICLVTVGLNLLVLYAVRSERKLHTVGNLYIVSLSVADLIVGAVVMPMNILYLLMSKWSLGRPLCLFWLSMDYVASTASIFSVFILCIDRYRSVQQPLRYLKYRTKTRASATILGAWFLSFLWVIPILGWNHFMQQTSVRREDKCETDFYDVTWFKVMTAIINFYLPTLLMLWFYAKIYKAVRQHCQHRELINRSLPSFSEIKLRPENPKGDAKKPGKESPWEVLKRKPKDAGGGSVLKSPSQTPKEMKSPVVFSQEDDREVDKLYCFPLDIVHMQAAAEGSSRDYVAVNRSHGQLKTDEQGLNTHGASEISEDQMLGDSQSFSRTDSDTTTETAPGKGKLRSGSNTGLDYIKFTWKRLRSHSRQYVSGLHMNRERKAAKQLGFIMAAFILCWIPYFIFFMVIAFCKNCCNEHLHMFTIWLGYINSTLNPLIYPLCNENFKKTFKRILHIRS
Sodium channel protein type 5 subunit alpha, sequence (Q14524 whole entry): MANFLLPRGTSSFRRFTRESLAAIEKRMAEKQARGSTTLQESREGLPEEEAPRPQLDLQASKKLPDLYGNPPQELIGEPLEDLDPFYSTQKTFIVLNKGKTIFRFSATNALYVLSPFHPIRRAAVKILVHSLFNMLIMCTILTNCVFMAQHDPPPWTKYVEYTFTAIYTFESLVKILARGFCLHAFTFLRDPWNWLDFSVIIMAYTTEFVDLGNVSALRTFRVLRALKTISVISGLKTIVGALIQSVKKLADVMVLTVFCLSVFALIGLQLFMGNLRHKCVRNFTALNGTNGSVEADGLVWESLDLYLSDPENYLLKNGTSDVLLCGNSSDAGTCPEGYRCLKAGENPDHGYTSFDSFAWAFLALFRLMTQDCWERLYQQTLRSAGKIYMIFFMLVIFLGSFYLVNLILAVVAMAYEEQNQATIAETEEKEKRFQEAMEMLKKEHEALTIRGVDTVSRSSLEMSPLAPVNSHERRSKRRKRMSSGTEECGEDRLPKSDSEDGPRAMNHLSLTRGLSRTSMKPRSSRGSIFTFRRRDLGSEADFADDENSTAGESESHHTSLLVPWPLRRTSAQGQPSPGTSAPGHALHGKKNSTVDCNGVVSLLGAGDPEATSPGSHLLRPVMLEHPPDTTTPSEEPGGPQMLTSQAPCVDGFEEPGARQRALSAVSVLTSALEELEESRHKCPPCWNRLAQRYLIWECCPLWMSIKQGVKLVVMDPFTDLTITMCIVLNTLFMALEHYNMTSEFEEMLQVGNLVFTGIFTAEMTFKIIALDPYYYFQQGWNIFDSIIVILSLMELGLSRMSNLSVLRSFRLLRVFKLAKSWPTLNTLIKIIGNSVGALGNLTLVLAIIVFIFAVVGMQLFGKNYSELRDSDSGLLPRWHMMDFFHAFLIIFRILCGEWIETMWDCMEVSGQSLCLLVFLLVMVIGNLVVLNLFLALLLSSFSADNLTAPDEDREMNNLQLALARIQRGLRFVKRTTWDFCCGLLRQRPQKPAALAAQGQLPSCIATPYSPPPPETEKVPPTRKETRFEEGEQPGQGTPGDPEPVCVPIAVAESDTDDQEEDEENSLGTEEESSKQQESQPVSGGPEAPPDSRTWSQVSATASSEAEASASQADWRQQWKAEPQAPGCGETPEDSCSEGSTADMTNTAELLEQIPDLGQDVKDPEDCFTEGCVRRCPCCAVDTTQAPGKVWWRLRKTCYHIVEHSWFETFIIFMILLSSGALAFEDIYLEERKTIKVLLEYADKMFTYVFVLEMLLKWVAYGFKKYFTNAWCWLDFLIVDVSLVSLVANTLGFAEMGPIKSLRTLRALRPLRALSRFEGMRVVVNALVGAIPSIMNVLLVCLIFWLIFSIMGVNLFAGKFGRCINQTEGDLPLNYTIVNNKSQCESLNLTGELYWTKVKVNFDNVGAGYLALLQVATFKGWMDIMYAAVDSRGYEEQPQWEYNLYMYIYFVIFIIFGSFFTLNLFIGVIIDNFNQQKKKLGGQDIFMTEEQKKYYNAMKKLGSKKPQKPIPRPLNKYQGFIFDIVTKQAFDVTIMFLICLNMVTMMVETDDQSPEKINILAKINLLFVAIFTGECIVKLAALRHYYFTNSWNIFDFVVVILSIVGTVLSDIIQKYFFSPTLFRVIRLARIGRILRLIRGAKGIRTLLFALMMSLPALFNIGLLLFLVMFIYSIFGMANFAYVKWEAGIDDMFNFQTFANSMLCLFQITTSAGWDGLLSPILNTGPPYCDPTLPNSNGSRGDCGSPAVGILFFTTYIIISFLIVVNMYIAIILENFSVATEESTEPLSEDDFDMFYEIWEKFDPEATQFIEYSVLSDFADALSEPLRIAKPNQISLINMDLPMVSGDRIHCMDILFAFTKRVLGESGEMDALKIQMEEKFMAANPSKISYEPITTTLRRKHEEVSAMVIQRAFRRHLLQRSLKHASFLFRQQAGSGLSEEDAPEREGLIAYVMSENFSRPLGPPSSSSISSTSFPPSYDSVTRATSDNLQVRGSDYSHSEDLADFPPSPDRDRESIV
5-hydroxytryptamine receptor 7, sequence (P34969 whole entry): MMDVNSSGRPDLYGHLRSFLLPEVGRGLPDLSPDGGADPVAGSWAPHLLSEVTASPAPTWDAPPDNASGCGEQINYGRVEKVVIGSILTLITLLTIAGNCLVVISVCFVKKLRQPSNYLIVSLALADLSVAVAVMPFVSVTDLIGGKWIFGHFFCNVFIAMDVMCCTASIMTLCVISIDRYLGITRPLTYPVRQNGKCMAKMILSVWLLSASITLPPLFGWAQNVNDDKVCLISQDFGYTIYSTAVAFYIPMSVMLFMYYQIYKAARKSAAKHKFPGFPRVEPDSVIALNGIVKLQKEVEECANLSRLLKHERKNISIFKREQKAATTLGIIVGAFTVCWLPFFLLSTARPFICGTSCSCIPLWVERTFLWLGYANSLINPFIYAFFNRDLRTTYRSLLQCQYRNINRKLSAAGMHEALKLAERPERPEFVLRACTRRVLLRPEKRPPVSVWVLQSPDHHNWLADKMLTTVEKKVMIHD
5-hydroxytryptamine receptor 6, sequence (P50406 whole entry): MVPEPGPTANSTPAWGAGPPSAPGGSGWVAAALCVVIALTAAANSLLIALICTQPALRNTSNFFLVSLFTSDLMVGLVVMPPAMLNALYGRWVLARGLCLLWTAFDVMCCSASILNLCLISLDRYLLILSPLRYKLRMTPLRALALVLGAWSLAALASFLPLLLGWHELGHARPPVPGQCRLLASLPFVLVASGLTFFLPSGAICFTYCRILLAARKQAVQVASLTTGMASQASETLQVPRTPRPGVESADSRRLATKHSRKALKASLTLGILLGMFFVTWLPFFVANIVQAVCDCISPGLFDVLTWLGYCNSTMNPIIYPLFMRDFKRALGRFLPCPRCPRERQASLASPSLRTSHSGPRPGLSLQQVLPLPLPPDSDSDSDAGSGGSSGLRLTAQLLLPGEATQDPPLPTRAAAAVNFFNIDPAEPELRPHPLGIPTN
5-hydroxytryptamine receptor 5A, sequence (P47898 whole entry): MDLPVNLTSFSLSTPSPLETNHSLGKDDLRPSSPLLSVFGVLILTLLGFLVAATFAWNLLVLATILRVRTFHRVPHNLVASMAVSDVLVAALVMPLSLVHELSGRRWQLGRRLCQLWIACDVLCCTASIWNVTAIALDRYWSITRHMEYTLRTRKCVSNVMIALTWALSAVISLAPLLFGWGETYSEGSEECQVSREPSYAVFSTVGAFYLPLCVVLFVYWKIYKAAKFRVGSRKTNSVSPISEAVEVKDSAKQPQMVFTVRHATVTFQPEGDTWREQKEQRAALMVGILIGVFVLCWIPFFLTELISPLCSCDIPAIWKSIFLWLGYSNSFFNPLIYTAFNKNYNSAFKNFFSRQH
Hydroxycarboxylic acid receptor 2, sequence (Q8TDS4 whole entry): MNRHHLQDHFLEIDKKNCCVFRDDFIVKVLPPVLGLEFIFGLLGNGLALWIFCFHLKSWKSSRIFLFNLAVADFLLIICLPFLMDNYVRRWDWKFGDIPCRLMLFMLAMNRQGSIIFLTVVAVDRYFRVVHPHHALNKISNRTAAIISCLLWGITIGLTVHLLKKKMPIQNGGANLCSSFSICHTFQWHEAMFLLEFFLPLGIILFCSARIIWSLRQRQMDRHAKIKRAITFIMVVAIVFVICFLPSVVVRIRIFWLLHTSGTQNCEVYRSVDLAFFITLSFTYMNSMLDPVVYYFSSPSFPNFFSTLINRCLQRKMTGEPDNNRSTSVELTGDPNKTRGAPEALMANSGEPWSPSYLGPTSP

Consider `O=C(Nc1nc(-c2cc(Cl)cs2)c(N2CCN(C3CCCCC3)CC2)s1)c1cnc(N2CCC(C(=O)O)CC2)c(Cl)c1` [AVATROMBOPAG], for which the AC50 (in [1]; in [2]; at Cannabinoid receptor 1; in experiment [3]; in [4]; in experiment [5]) was over 10 µM throughout. Also, the AC50 (in experiment [6]; on Substance-K receptor) was over 10 µM throughout.
In the case of `C[C@H]1C[C@H]2[C@@H]3CCC4=CC(=O)C=C[C@]4(C)[C@@]3(Cl)[C@@H](O)C[C@]2(C)[C@@]1(O)C(=O)CO` [BECLOMETHASONE], the AC50 in experiment [7] was over 10 µM.
On to `NS(=O)(=O)c1cc(C2(O)NC(=O)c3ccccc32)ccc1Cl` (stereo not drawn) [CHLORTHALIDONE], for which the AC50 in experiment [8] is over 100 µM.
In turn, `COc1ccc2c(c1)[C@]13CCCC[C@@H]1[C@H](C2)N(C)CC3` [DEXTROMETHORPHAN] displayed an AC50 in experiment [9] of over 30 µM.
Regarding `O=C(CCCN1CC=C(n2c(=O)[nH]c3ccccc32)CC1)c1ccc(F)cc1` [DROPERIDOL], the AC50 in [10] is over 50 µM; in [9], 49 µM.
`CCn1cc(C(=O)O)c(=O)c2cc(F)c(N3CCNCC3)nc21` [ENOXACIN]: the AC50 (in [1]; in [2]; at Cannabinoid receptor 1; in experiment [3]; in experiment [4]; in [5]) was over 10 µM throughout. Moreover, the AC50 (in experiment [6]; on Substance-K receptor) was over 10 µM each time.
Compound `c1ccc2c(CC3=NCCN3)cccc2c1` [NAPHAZOLINE] had an AC50 in [11] of 0.0087 µM.
In turn, `CNC(=O)Oc1ccc2c(c1)[C@]1(C)CCN(C)[C@@H]1N2C` [PHYSOSTIGMINE] returned an AC50 in [12] of over 30 µM.
As for `NS(=O)(=O)c1cc(C(=O)O)cc(N2CCCC2)c1Oc1ccccc1` [PIRETANIDE], the AC50 in experiment [8] was over 100 µM.
With `COCCCOc1ccnc(C[S+]([O-])c2nc3ccccc3[nH]2)c1C` (stereo not drawn) [RABEPRAZOLE], the AC50 in [7] was over 10 µM.
As to `O=C(CCCN1CCC2(CC1)C(=O)NCN2c1ccccc1)c1ccc(F)cc1` [SPIPERONE], the results for the AC50 (at Histamine H1 receptor [13]; on Histamine H1 receptor [14]; in [11]) were 7.1 µM, 1.2 µM and 17 µM, respectively.
